Experimental findings from patent US8163921B2, “Hepatitis C virus inhibitors” (Bristol-Myers Squibb Company, priority 2008, dated 2012) are described below.

One may read the EC50 as the concentration at which the effect is half-maximal.

This assay has as its system HCV replicon in HUH-7 cells. Briefly: HCV replicon FRET assay. It counts as cell-based, HCV strain 1b. Conditions: Hepatitis C virus, Huh-7; read-out: EC50 value in the replicon FRET assay.

Turning to `C=C[C@@H]1C[C@]1(NC(=O)[C@@H]1C[C@@H](Oc2ncc(OC)c3ccc(Cl)cc23)CN1C(=O)[C@@H](Nc1nc(-c2cccc(OC(F)(F)F)c2)cs1)C(C)(C)C)C(=O)NS(=O)(=O)C1CC1` [Example 68], the 50% effective concentration (EC50) was 5.7 nM.
